For seven molecules, IC50, T and Activity results are on record in ChEMBL document CHEMBL5380876, “Non-fused imidazole-biphenyl analogs repress triple-negative breast cancer growth by mainly stabilizing the c-MYC G-quadruplex via a multi-site binding mode” (Bioorg Med Chem, 2023).

Activity calls are given as the source filed them. No cut-off for these calls is given here.

One series deals with HeLa. Briefly: Cytotoxicity against human HeLa cells assessed as reduction in cell viability by CCK8 assay. In kind it is functional, cell-based. Background: Formazan colour is commonly taken as a measure of viable cells.
Another series relates to A549. As to the kind of experiment: Cytotoxicity against human A549 cells assessed as reduction in cell viability by CCK8 assay. In kind it is functional, cell-based.
A short description of series [1]: Cytotoxicity against human MCF-10A cells assessed as reduction in cell viability by CCK8 assay. In kind it is toxicity, cell-based.
Series [2] has as its system MDA-MB-231. Briefly: Cytotoxicity against human MDA-MB-231 cells assessed as reduction in cell viability by CCK8 assay. In kind it is functional, cell-based.
The test system of another series is HCC1806. As to the kind of experiment: Cytotoxicity against human HCC1806 cells assessed as reduction in cell viability by CCK8 assay. The series is classed as functional, cell-based.
The test system of another series is KYSE-30. As to the kind of experiment: Cytotoxicity against human KYSE-30 cells assessed as reduction in cell viability by CCK8 assay. The series is classed as functional, cell-based.
Series [3] concerns Quadruplex DNA. Briefly: Stabilization of c-Myc G4 quadruplex DNA (unknown origin) assessed as temperature at which 50% protein unfold by circular dichroism melting assay. In kind it is nucleic-acid assay. In general terms: CD spectra are sensitive to the conformation of chiral molecules.
In series [4] the test system is MDA-MB-231. Briefly: Antitumor activity against human MDA-MB-231 cells xenografted in BALB/c nude mouse assessed as reduction in tumor weight at 2 mg/kg, ip administered every other day for 20 days and measured every 4 days. Conditions: time 20.0 day. The series is classed as functional, organism-based.
Series [5] is described as follows: Toxicity in BALB/c mouse xenografted with human MDA-MB-231 cells assessed as effect on body weight at 2 mg/kg, ip administered every other day for 20 days and measured every 4 days. Conditions: in vivo, 480 h, time 20 day. In kind it is organism-based.
Series [6] concerns Quadruplex DNA. As to the kind of experiment: Stabilization of c-Myc G4 quadruplex DNA (unknown origin) assessed as temperature at 50% protein unfold by circular dichroism melting assay. The series is classed as nucleic-acid assay.

As usually defined, the IC50 is the concentration at which inhibition is half-maximal. Turning to `CN1CCN(c2ccc(-c3nc(-c4ccc(-c5ccccc5)cc4)[nH]c3-c3ccc(N4CCN(C)CC4)cc3)cc2)CC1`, the IC50 stood at 8.92 µM in the series with HeLa; 2.51 µM in the series on A549; 9.23 µM in [1]; 3.69 µM with MDA-MB-231 [2]; 5.68 µM in the series on HCC1806; 3.86 µM with KYSE-30. Also, the T in the series with Quadruplex DNA [3] is 36.8 °C.
On to `CN1CCN(c2ccc(-c3nc(-c4ccc(-c5ccccn5)cc4)[nH]c3-c3ccc(N4CCN(C)CC4)cc3)cc2)CC1`, for which the IC50 in the series with HeLa stood at 12.3 µM; with A549, 1.94 µM; in series [1] it was 7.75 µM; in the series on MDA-MB-231 [2], 2.19 µM; in the series with HCC1806 it was 7.09 µM; in the series with KYSE-30 it was 2.79 µM. Moreover, the T with Quadruplex DNA [3] worked out at 34.4 °C.
With `COc1ccccc1-c1ccc(-c2nc(-c3ccc(N4CCN(C)CC4)cc3)c(-c3ccc(N4CCN(C)CC4)cc3)[nH]2)cc1`, the IC50 with HeLa is greater than 20 µM; in the series on A549, 7.51 µM; in series [1], greater than 20 µM; in the series on MDA-MB-231 [2], 8.19 µM; in the series with HCC1806, greater than 20 µM; in the series with KYSE-30, 8.64 µM. Also, the T in the series on Quadruplex DNA [3] was 23.5 °C.
`COc1ccc(-c2ccc(-c3nc(-c4ccc(N5CCN(C)CC5)cc4)c(-c4ccc(N5CCN(C)CC5)cc4)[nH]3)cc2)cc1`: the IC50 in the series with HeLa worked out at 5.49 µM; in the series with A549, 2.42 µM; in series [1], 9.69 µM; in the series with MDA-MB-231 [2], 2.69 µM; with HCC1806, 3.74 µM; with KYSE-30, 2.5 µM. In addition, in the series on Quadruplex DNA [3], the T was 36.2 °C.
As to `COc1cccc2c1C(=O)c1c(O)c3c(c(O)c1C2=O)C[C@@](O)(C(=O)CO)C[C@@H]3O[C@H]1C[C@H](N)[C@H](O)[C@H](C)O1` [DOXORUBICIN], in the series on MDA-MB-231 [4], the outcome was Active. Besides, the Activity result in series [5] is listed as “Toxic”.
Consider `CN1CCN(c2ccc(-c3nc(-c4ccc(C(F)(F)F)cc4)[nH]c3-c3ccc(N4CCN(C)CC4)cc3)cc2)CC1`, for which the T in the series on Quadruplex DNA [6] was 28.4 °C.
Turning to `CN1CCN(c2ccc(-c3nc(-c4ccc(-c5ccccc5C(F)(F)F)cc4)[nH]c3-c3ccc(N4CCN(C)CC4)cc3)cc2)CC1`, the IC50 with HeLa was 3.55 µM; in the series with A549 it was 1.7 µM; in series [1], greater than 20 µM; with MDA-MB-231 [2], 2.43 µM; in the series on HCC1806 it was 1.9 µM; in the series with KYSE-30, 2.21 µM. Moreover, in the series with Quadruplex DNA [3], the T turned out to be 29.6 °C.
